Results reported in PubChem BioAssay AID1919000 (Molecular Pharmacology Branch, DTP, NCI, 2023).

Test system: 653999-131-R-J2-PDC complex spheroids, growth % test/control
Test: Anticancer human tumor 653999-131-R-J2-PDC patient-derived lung adenocarcinoma cell line growth inhibition [AhR]
Details: for IC50: curve of first compound; for viability, T/C: stronger effect = lower value
How it was run: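 Agents were dosed in half-log steps down from roughly clinical Cmax, or from 10 microM where Cmax was unknown, alone and with AhR antagonists. Read-out: percent test/control growth of tumor spheroids containing HUVEC and MSC stromal cells.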

[1] = second compound 0.1 µM, first compound 0.0316 µM
[2] = second compound 0.1 µM, first compound 0.1 µM
[3] = second compound 0.1 µM, first compound 0.316 µM
[4] = second compound 0.1 µM, first compound 1 µM
[5] = second compound 0.1 µM, first compound 3.16 µM
[6] = second compound 0.1 µM, first compound 10 µM
[7] = second compound 0.316 µM, first compound 0.0316 µM
[8] = second compound 0.316 µM, first compound 0.1 µM
[9] = second compound 0.316 µM, first compound 0.316 µM
[10] = second compound 0.316 µM, first compound 1 µM
[11] = second compound 0.316 µM, first compound 3.16 µM
[12] = second compound 0.316 µM, first compound 10 µM
[13] = second compound 1 µM, first compound 0.0316 µM
[14] = second compound 1 µM, first compound 0.1 µM
[15] = second compound 1 µM, first compound 0.316 µM
[16] = second compound 1 µM, first compound 1 µM
[17] = second compound 1 µM, first compound 3.16 µM
[18] = second compound 1 µM, first compound 10 µM
[19] = second compound 3.16 µM, first compound 0.0316 µM
[20] = second compound 3.16 µM, first compound 0.1 µM
[21] = second compound 3.16 µM, first compound 0.316 µM
[22] = second compound 3.16 µM, first compound 1 µM
[23] = second compound 3.16 µM, first compound 3.16 µM
[24] = second compound 3.16 µM, first compound 10 µM
[25] = second compound 10 µM, first compound 0.0316 µM
[26] = second compound 10 µM, first compound 0.1 µM
[27] = second compound 10 µM, first compound 0.316 µM
[28] = second compound 10 µM, first compound 1 µM
[29] = second compound 10 µM, first compound 3.16 µM
[30] = second compound 10 µM, first compound 10 µM
[31] = second compound 0.1 µM, first compound 0.00316 µM
[32] = second compound 0.1 µM, first compound 0.01 µM
[33] = second compound 0.316 µM, first compound 0.00316 µM
[34] = second compound 0.316 µM, first compound 0.01 µM
[35] = second compound 1 µM, first compound 0.00316 µM
[36] = second compound 1 µM, first compound 0.01 µM
[37] = second compound 3.16 µM, first compound 0.00316 µM
[38] = second compound 3.16 µM, first compound 0.01 µM
[39] = second compound 10 µM, first compound 0.00316 µM
[40] = second compound 10 µM, first compound 0.01 µM
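Also: spheroids exposed to agents for seven days.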
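For viability, T/C in this document: 100% = DMSO vehicle control viability.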

Row | Structure (SMILES) | IC50 (second compound 0.1 µM) [nM] | IC50 (second compound 0.316 µM) [nM] | IC50 (second compound 1 µM) [nM] | IC50 (second compound 3.16 µM) [nM] | IC50 (second compound 10 µM) [nM] | viability, T/C [1] [%] | viability, T/C [2] [%] | viability, T/C [3] [%] | viability, T/C [4] [%] | viability, T/C [7] [%] | viability, T/C [8] [%] | viability, T/C [9] [%] | viability, T/C [10] [%] | viability, T/C [13] [%] | viability, T/C [14] [%] | viability, T/C [15] [%] | viability, T/C [16] [%] | viability, T/C [19] [%] | viability, T/C [20] [%] | viability, T/C [21] [%] | further results
1 | CC(C)c1c(-c2ccccc2)nc2c(C#N)c[nH]n2c1=O + Cc1ccccc1N=Nc1ccc(NC(=O)c2ccnn2C)c(C)c1 | > 10000 | > 10000 | > 10000 | > 10000 | > 10000 | 97.4 | 101 | 107 | 95.6 | 96.5 | 105 | 103 | 98.9 | 106 | 126 | 108 | 105 | 99.4 | 115 | 107 | viability, T/C [5]: 98.5%; viability, T/C [6]: 99.1%; viability, T/C [11]: 98.2%; viability, T/C [12]: 111%; viability, T/C [17]: 109%; viability, T/C [18]: 104%; viability, T/C [22]: 92.8%; viability, T/C [23]: 90.3%; viability, T/C [24]: 105%; viability, T/C [25]: 97.5%; viability, T/C [26]: 105%; viability, T/C [27]: 111%; viability, T/C [28]: 92.7%; viability, T/C [29]: 107%; viability, T/C [30]: 108%
2 | CC1COCCN1c1cc(-c2ccnn2C)c2ccnc(-c3ccn[nH]3)c2n1 (stereo not given) + Cc1ccccc1N=Nc1ccc(NC(=O)c2ccnn2C)c(C)c1 | 168 | 157 | 193 | 138 | 233 | 82 | 59.7 | 38.7 | 34.5 | 78.4 | 60.3 | 36.6 | 31.8 | 76.9 | 65.1 | 37.9 | 36.3 | 84.5 | 54.9 | 39.8 | viability, T/C [31]: 98.7%; viability, T/C [32]: 101%; viability, T/C [33]: 103%; viability, T/C [34]: 103%; viability, T/C [35]: 102%; viability, T/C [36]: 100%; viability, T/C [37]: 103%; viability, T/C [38]: 107%; viability, T/C [22]: 35.1%; viability, T/C [39]: 89.7%; viability, T/C [40]: 89.3%; viability, T/C [25]: 76.3%; viability, T/C [26]: 57.6%; viability, T/C [27]: 49.8%; viability, T/C [28]: 39.1%
3 | COc1ccc([C@@H](O)c2cc(-c3ncnc4cc(N5CCOCC5)ccc34)c(F)cc2Cl)nn1 + Cc1ccccc1N=Nc1ccc(NC(=O)c2ccnn2C)c(C)c1 | 9880 | > 10000 | > 10000 | > 10000 | 7770 | 101 | 105 | 88.7 | 74.2 | 114 | 114 | 88.7 | 83.6 | 96 | 94.5 | 109 | 87.6 | 96 | 107 | 98.7 | viability, T/C [5]: 66%; viability, T/C [6]: 48.6%; viability, T/C [11]: 65%; viability, T/C [12]: 51.8%; viability, T/C [17]: 62.8%; viability, T/C [18]: 54.9%; viability, T/C [22]: 88.1%; viability, T/C [23]: 67.9%; viability, T/C [24]: 54.5%; viability, T/C [25]: 89.5%; viability, T/C [26]: 101%; viability, T/C [27]: 95.1%; viability, T/C [28]: 83.6%; viability, T/C [29]: 70.9%; viability, T/C [30]: 44.2%
4 | COc1cccc2c1C(=O)c1c(O)c3c(c(O)c1C2=O)CC(O)(C(=O)CO)CC3OC1CC(N)C(O)C(C)O1 (stereo not given) + Cc1cncc(-c2nc(NCCc3c[nH]c4ccccc34)c3ncn(C(C)C)c3n2)c1 | < 31.6 | < 31.6 | < 31.6 | 112 | < 31.6 | 50.2 | 38.3 | 26.9 | 7.22 | 50.4 | 37.9 | 27.2 | 6.87 | 51.4 | 44.9 | 27.6 | 6.09 | 56.1 | 50 | 28.9 | viability, T/C [5]: 3.85%; viability, T/C [6]: 14%; viability, T/C [11]: 3.35%; viability, T/C [12]: 12.9%; viability, T/C [17]: 3.45%; viability, T/C [18]: 15.4%; viability, T/C [22]: 4.87%; viability, T/C [23]: 4.59%; viability, T/C [24]: 12.2%; viability, T/C [25]: 40%; viability, T/C [26]: 35.5%; viability, T/C [27]: 21.5%; viability, T/C [28]: 2.46%; viability, T/C [29]: 5.69%; viability, T/C [30]: 7.61%
5 | Nc1ncn(C2CC(O)C(CO)O2)c(=O)n1 (stereo not given) + Cc1cncc(-c2nc(NCCc3c[nH]c4ccccc34)c3ncn(C(C)C)c3n2)c1 | > 1000 | > 1000 | > 1000 | > 1000 | 210 | 92.3 | 86.5 | 88.2 | 77.5 | 90.8 | 85.1 | 87.7 | 83.6 | 99.2 | 99.2 | 94.1 | 82 | 106 | 98.3 | 96.9 | viability, T/C [31]: 96.2%; viability, T/C [32]: 86.1%; viability, T/C [33]: 91.2%; viability, T/C [34]: 94%; viability, T/C [35]: 106%; viability, T/C [36]: 108%; viability, T/C [37]: 98.7%; viability, T/C [38]: 95.2%; viability, T/C [22]: 90.2%; viability, T/C [39]: 54.6%; viability, T/C [40]: 52.4%; viability, T/C [25]: 54%; viability, T/C [26]: 51.9%; viability, T/C [27]: 49.2%; viability, T/C [28]: 47.2%
